Experimental data from the supplement of paper PMC10307832.

Assays:
Assay in all cases: relative viability (nuclei count vs DMSO), 5 days (fraction); higher = more cells survive
ABC-1 = tested on: ABC-1
Outline: (§1)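 Relative viability is defined as nuclei in treated wells over nuclei in vehicle wells. Duplicate plates were run and medians reported. Lung cancer cell lines in 1536-well plates were dosed by pin tool one day after seeding, with one drug or with a fixed anchor-drug dose plus five library-drug doses (not always all listed) in √10 steps, and nuclei were counted after 5 days.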

COR-L23 = tested on: COR-L23
Outline: as §1

ChaGo-K-1 = tested on: ChaGo-K-1
Outline: as §1

EMC-BAC-2 = tested on: EMC-BAC-2
Outline: as §1

HARA = tested on: HARA
Outline: as §1

HCC-15 = tested on: HCC-15
Outline: as §1

HCC-366 = tested on: HCC-366
Outline: as §1

HCC-78 = tested on: HCC-78
Outline: as §1

HOP-62 = tested on: HOP-62
Outline: as §1

LC-2-ad = tested on: LC-2-ad
Outline: as §1

NCI-H1395 = tested on: NCI-H1395
Outline: as §1

NCI-H1793 = tested on: NCI-H1793
Outline: as §1

NCI-H1944 = tested on: NCI-H1944
Outline: as §1

NCI-H1993 = tested on: NCI-H1993
Outline: as §1

NCI-H2023 = tested on: NCI-H2023
Outline: as §1

NCI-H2126 = tested on: NCI-H2126
Outline: as §1

NCI-H2228 = tested on: NCI-H2228
Outline: as §1

NCI-H23 = tested on: NCI-H23
Outline: as §1

NCI-H2405 = tested on: NCI-H2405
Outline: as §1

NCI-H358 = tested on: NCI-H358
Outline: as §1

NCI-H838 = tested on: NCI-H838
Outline: as §1

SK-LU-1 = tested on: SK-LU-1
Outline: as §1

CCN(CC)CCCCNc1ncc2cc(-c3cc(OC)cc(OC)c3)c(NC(=O)NC(C)(C)C)nc2n1 + N=C(N)NC(=N)NCCc1ccccc1 [Phenformin] (partner 250 µM) showed a relative viability (ABC-1; first compound 0.01 µM) of 0.24, a relative viability (ABC-1; first compound 0.03162 µM) of 0.286 and a relative viability (ABC-1; first compound 0.1 µM) of 0.256. It also gave a relative viability (ABC-1; first compound 0.3162 µM) of 0.208, a relative viability (ABC-1; first compound 1 µM) of 0.254 and a relative viability (COR-L23; first compound 0.01 µM) of 0.433. It also gave a relative viability (COR-L23; first compound 0.03162 µM) of 0.444, a relative viability (COR-L23; first compound 0.1 µM) of 0.511 and a relative viability (COR-L23; first compound 0.3162 µM) of 0.517. For the same compound, the relative viability (COR-L23; first compound 1 µM) was 0.362, the relative viability (ChaGo-K-1; first compound 0.01 µM) was 0.541 and the relative viability (ChaGo-K-1; first compound 0.03162 µM) was 0.45. The relative viability (ChaGo-K-1; first compound 0.1 µM) was 0.585, the relative viability (ChaGo-K-1; first compound 0.3162 µM) was 0.47 and the relative viability (ChaGo-K-1; first compound 1 µM) was 0.474. It also gave a relative viability (EMC-BAC-2; first compound 0.01 µM) of 0.525, a relative viability (EMC-BAC-2; first compound 0.03162 µM) of 0.586 and a relative viability (EMC-BAC-2; first compound 0.1 µM) of 0.562. For the same compound, the relative viability (EMC-BAC-2; first compound 0.3162 µM) was 0.592, the relative viability (EMC-BAC-2; first compound 1 µM) was 0.418 and the relative viability (HARA; first compound 0.01 µM) was 0.49. It also gave a relative viability (HARA; first compound 0.03162 µM) of 0.504, a relative viability (HARA; first compound 0.1 µM) of 0.489 and a relative viability (HARA; first compound 0.3162 µM) of 0.395. For the same compound, the relative viability (HARA; first compound 1 µM) was 0.364, the relative viability (HCC-15; first compound 0.01 µM) was 0.466 and the relative viability (HCC-15; first compound 0.03162 µM) was 0.535. For the same compound, the relative viability (HCC-15; first compound 0.1 µM) was 0.526, the relative viability (HCC-15; first compound 0.3162 µM) was 0.484 and the relative viability (HCC-15; first compound 1 µM) was 0.424. It also gave a relative viability (HCC-366; first compound 0.01 µM) of 0.627, a relative viability (HCC-366; first compound 0.03162 µM) of 0.666 and a relative viability (HCC-366; first compound 0.1 µM) of 0.65. For the same compound, the relative viability (HCC-366; first compound 0.3162 µM) was 0.622, the relative viability (HCC-366; first compound 1 µM) was 0.581 and the relative viability (HCC-78; first compound 0.01 µM) was 0.646. For the same compound, the relative viability (HCC-78; first compound 0.03162 µM) was 0.732, the relative viability (HCC-78; first compound 0.1 µM) was 0.663 and the relative viability (HCC-78; first compound 0.3162 µM) was 0.805. It also gave a relative viability (HCC-78; first compound 1 µM) of 0.631, a relative viability (HOP-62; first compound 0.01 µM) of 0.81 and a relative viability (HOP-62; first compound 0.03162 µM) of 0.847. For the same compound, the relative viability (HOP-62; first compound 0.1 µM) was 0.604, the relative viability (HOP-62; first compound 0.3162 µM) was 0.752 and the relative viability (HOP-62; first compound 1 µM) was 0.654. For the same compound, the relative viability (LC-2-ad; first compound 0.01 µM) was 0.625, the relative viability (LC-2-ad; first compound 0.03162 µM) was 0.55 and the relative viability (LC-2-ad; first compound 0.1 µM) was 0.586. It also gave a relative viability (LC-2-ad; first compound 0.3162 µM) of 0.629, a relative viability (LC-2-ad; first compound 1 µM) of 0.483 and a relative viability (NCI-H1395; first compound 0.01 µM) of 0.426. It also gave a relative viability (NCI-H1395; first compound 0.03162 µM) of 0.455, a relative viability (NCI-H1395; first compound 0.1 µM) of 0.451 and a relative viability (NCI-H1395; first compound 0.3162 µM) of 0.431. It also gave a relative viability (NCI-H1395; first compound 1 µM) of 0.397, a relative viability (NCI-H1793; first compound 0.01 µM) of 0.416 and a relative viability (NCI-H1793; first compound 0.03162 µM) of 0.427. It also gave a relative viability (NCI-H1793; first compound 0.1 µM) of 0.353, a relative viability (NCI-H1793; first compound 0.3162 µM) of 0.341 and a relative viability (NCI-H1793; first compound 1 µM) of 0.335. It also gave a relative viability (NCI-H1944; first compound 0.01 µM) of 0.204, a relative viability (NCI-H1944; first compound 0.03162 µM) of 0.195 and a relative viability (NCI-H1944; first compound 0.1 µM) of 0.194. For the same compound, the relative viability (NCI-H1944; first compound 0.3162 µM) was 0.202, the relative viability (NCI-H1944; first compound 1 µM) was 0.16 and the relative viability (NCI-H1993; first compound 0.01 µM) was 0.501. The relative viability (NCI-H1993; first compound 0.03162 µM) was 0.512, the relative viability (NCI-H1993; first compound 0.1 µM) was 0.554 and the relative viability (NCI-H1993; first compound 0.3162 µM) was 0.492. The relative viability (NCI-H1993; first compound 1 µM) was 0.514, the relative viability (NCI-H2023; first compound 0.01 µM) was 0.415 and the relative viability (NCI-H2023; first compound 0.03162 µM) was 0.43. It also gave a relative viability (NCI-H2023; first compound 0.1 µM) of 0.5, a relative viability (NCI-H2023; first compound 0.3162 µM) of 0.432 and a relative viability (NCI-H2023; first compound 1 µM) of 0.4. The relative viability (NCI-H2126; first compound 0.01 µM) was 0.496, the relative viability (NCI-H2126; first compound 0.03162 µM) was 0.52 and the relative viability (NCI-H2126; first compound 0.1 µM) was 0.551. The relative viability (NCI-H2126; first compound 0.3162 µM) was 0.623, the relative viability (NCI-H2126; first compound 1 µM) was 0.515 and the relative viability (NCI-H2228; first compound 0.01 µM) was 0.341. For the same compound, the relative viability (NCI-H2228; first compound 0.03162 µM) was 0.336, the relative viability (NCI-H2228; first compound 0.1 µM) was 0.384 and the relative viability (NCI-H2228; first compound 0.3162 µM) was 0.346. For the same compound, the relative viability (NCI-H2228; first compound 1 µM) was 0.304, the relative viability (NCI-H23; first compound 0.01 µM) was 0.804 and the relative viability (NCI-H23; first compound 0.03162 µM) was 0.878. It also gave a relative viability (NCI-H23; first compound 0.1 µM) of 0.791, a relative viability (NCI-H23; first compound 0.3162 µM) of 0.879 and a relative viability (NCI-H23; first compound 1 µM) of 0.781. For the same compound, the relative viability (NCI-H2405; first compound 0.01 µM) was 0.38, the relative viability (NCI-H2405; first compound 0.03162 µM) was 0.412 and the relative viability (NCI-H2405; first compound 0.1 µM) was 0.518. It also gave a relative viability (NCI-H2405; first compound 0.3162 µM) of 0.427, a relative viability (NCI-H2405; first compound 1 µM) of 0.315 and a relative viability (NCI-H358; first compound 0.01 µM) of 0.358. It also gave a relative viability (NCI-H358; first compound 0.03162 µM) of 0.302, a relative viability (NCI-H358; first compound 0.1 µM) of 0.358 and a relative viability (NCI-H358; first compound 0.3162 µM) of 0.472. It also gave a relative viability (NCI-H358; first compound 1 µM) of 0.331, a relative viability (NCI-H838; first compound 0.01 µM) of 0.498 and a relative viability (NCI-H838; first compound 0.03162 µM) of 0.562. It also gave a relative viability (NCI-H838; first compound 0.1 µM) of 0.597, a relative viability (NCI-H838; first compound 0.3162 µM) of 0.538 and a relative viability (NCI-H838; first compound 1 µM) of 0.291. The relative viability (SK-LU-1; first compound 0.01 µM) was 0.661, the relative viability (SK-LU-1; first compound 0.03162 µM) was 0.551 and the relative viability (SK-LU-1; first compound 0.1 µM) was 0.681. It also gave a relative viability (SK-LU-1; first compound 0.3162 µM) of 0.586 and a relative viability (SK-LU-1; first compound 1 µM) of 0.285.
